# Like-named read-outs stand apart in the source and are kept apart here.
# What was measured:
# histamine H2 receptors = target: T1, histamine H2 receptors (Cavia porcellus, UniProt P47747); experiment: Antagonistic activity to the histamine H2 receptors "in vitro" on insulated atrium auricolas of Guinea pig heart; details: for inhibition at 10 µM / inhibition at 1 µM / inhibition at 0.1 µM / inhibition at 0.01 µM: guinea pig, 0.5 h, read-out: Antagonizing activity to histamine H2 receptors; for inhibition at 10 µM: compound 1·10^-5 M/L; for inhibition at 1 µM: compound 1·10^-6 M/L; for inhibition at 0.1 µM: compound 1·10^-7 M/L; for antagonistic action to the histamine H2 receptors (in words): in vitro; for inhibition at 0.01 µM: compound 1·10^-8 M/L
# T1 construct: tests on insulated atrium auricolas of Guinea pig heart; from tissue; host or cells: isolated guinea pig heart atrium
# Experimental: (§1) The preparations were a solution of the substances in 2.5% citric acid for the "in vitro" test and 5% citric acid for the "in vivo" test respectively. Citric acid was diluted in normal physiologic saline at neutral pH.
# This activity was evaluated "in vitro" by carrying out tests on insulated atrium auricolas of Guinea pig heart. […] Metering was carried out by placing the preparation into a vessel containing a Ringer-Locke solution wherein pure oxygen was bubbling, at a temperature of 37° C. A response of the organ "in vitro" was first established at cumulative histamine doses of 2.5.10^-7, 5.10^-7, 10^-6, 5.10^-6, 10^-5 M/L. After obtaining two constant lines with histamine at a time interval of one hour from one another, the substances under test were added to the bath and after a 30 minutes contact with the preparation, a new histamine response line in the presence of the substance under test was drawn. The activity was tested at various concentrations of the new compounds (10^-5, 10^-6, 10^-7 and in one case 10^-8 M/L).
# gastric secretion = experiment: Activity on gastric secretion "in vivo" (volume and total acidity of gastric juice after pylorus tieing, Shay); design: species or system male Wistar rats; details: for Total acidity gastric juice secretion / Volume gastric juice secretion / change in vivo at 20 mg/kg: 20 mg/kg oral; for change in vivo at 20 mg/kg / ED50: Rattus norvegicus, po; for ED50: per os, 1 hour before pilorus tieing, read-out: DE50 in rat calculated on total acidity (mEq/4 hours); for ability to reduce the gastric acid secretion (in words): volume and total acidity of gastric juice
# Experimental: as §1
# The ability of the compounds according to the present invention to inhibit the gastric secretion was studied "in vivo" both by evaluating the volume reduction of gastric juice, and by measuring the total acidity of same after administration of the substances under test according to the Takeda method (see the aforementioned literature).
# To this end, tests have been made on male Wistar rats of an average weight of 200 g. The animals, 10 for each substance, were placed into individual cages provided with ground grating in order to avoid coprophagy, without food but with free access to water for 24 hours before test. […] Four hours later the animals were sacrificed and the gastric juice was collected, of which the volume expressed in ml and the total acidity expressed in mEq was measured. The gastric juice ([…] ) was titrated with 0.1N NaOH to pH 7 to determine the acid concentration. The total acidity was then calculated as the product of the total volume of gastric juice by the acid concentration.
# in vivo = details: po; for LD50 at 360 h: mouse; for LD50: rat
# Description: The animals were kept under observation by checking mortality and possible pain signs for 15 days from start of test.
# [1] = 6 hours before pilorus tieing, read-out: Total acidity gastric juice secretion, Variation %
# [2] = 6 hours before pilorus tieing, read-out: Volume gastric juice secretion, Variation %
# [3] = 12 hours before pilorus tieing, read-out: Total acidity gastric juice secretion, Variation %
# [4] = 12 hours before pilorus tieing, read-out: Volume gastric juice secretion, Variation %
# [5] = 24 hours before pilorus tieing, read-out: Total acidity gastric juice secretion, Variation %
# [6] = 24 hours before pilorus tieing, read-out: Volume gastric juice secretion, Variation %
# [7] = 36 hours before pilorus tieing, read-out: Total acidity gastric juice secretion, Variation %
# [8] = 36 hours before pilorus tieing, read-out: Volume gastric juice secretion, Variation %
# T1 sequence (P47747 whole entry): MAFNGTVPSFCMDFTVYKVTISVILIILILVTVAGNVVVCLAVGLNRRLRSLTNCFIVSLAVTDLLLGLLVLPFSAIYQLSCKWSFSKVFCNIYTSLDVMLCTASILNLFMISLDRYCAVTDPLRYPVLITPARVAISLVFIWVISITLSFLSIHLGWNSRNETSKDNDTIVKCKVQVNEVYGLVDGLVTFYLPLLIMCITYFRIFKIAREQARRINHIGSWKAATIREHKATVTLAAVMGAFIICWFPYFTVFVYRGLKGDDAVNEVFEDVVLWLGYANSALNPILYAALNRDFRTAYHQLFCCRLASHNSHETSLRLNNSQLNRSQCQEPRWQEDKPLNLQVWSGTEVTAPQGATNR
smiles,measurement,setting,value
"CN(C)Cc1ccc(CSCCNc2nc(-c3ccc(-c4ccccc4)cc3)cs2)o1 [Example No. 5, 2-(2-(((5-(dimethylamino)methyl-2-furanyl)methyl)thio)ethyl)amino-4-(4-biphenyl)-thiazole]",inhibition at 10 µM,histamine H2 receptors; histamine 1·10^-5 M/L,100%
same,inhibition at 10 µM,histamine H2 receptors; histamine 1·10^-6 M/L,100%
same,inhibition at 10 µM,"histamine H2 receptors; histamine 2,5·10^-7 M/L",100%
same,inhibition at 10 µM,histamine H2 receptors; histamine 5·10^-6 M/L,100%
same,inhibition at 10 µM,histamine H2 receptors; histamine 5·10^-7 M/L,100%
same,inhibition at 1 µM,histamine H2 receptors; histamine 1·10^-5 M/L,45%
same,inhibition at 1 µM,histamine H2 receptors; histamine 1·10^-6 M/L,70%
same,inhibition at 1 µM,"histamine H2 receptors; histamine 2,5·10^-7 M/L",100%
same,inhibition at 1 µM,histamine H2 receptors; histamine 5·10^-6 M/L,60%
same,inhibition at 1 µM,histamine H2 receptors; histamine 5·10^-7 M/L,90%
same,inhibition at 0.1 µM,histamine H2 receptors; histamine 1·10^-5 M/L,25%
same,inhibition at 0.1 µM,histamine H2 receptors; histamine 1·10^-6 M/L,65%
same,inhibition at 0.1 µM,"histamine H2 receptors; histamine 2,5·10^-7 M/L",95%
same,inhibition at 0.1 µM,histamine H2 receptors; histamine 5·10^-6 M/L,40%
same,inhibition at 0.1 µM,histamine H2 receptors; histamine 5·10^-7 M/L,85%
same,antagonistic action to the histamine H2 receptors (in words),histamine H2 receptors,interesting ability
same,Total acidity gastric juice secretion,gastric secretion; 6 hours before pilorus tieing,"0,08 mEq/4 hours"
same,Volume gastric juice secretion,gastric secretion; 6 hours before pilorus tieing,"3,7 ml/4 hours"
same,Total acidity gastric juice secretion,gastric secretion; 12 hours before pilorus tieing,"0,08 mEq/4 hours"
same,Volume gastric juice secretion,gastric secretion; 12 hours before pilorus tieing,"3,8 ml/4 hours"
same,Total acidity gastric juice secretion,gastric secretion; 24 hours before pilorus tieing,"0,13 mEq/4 hours"
same,Volume gastric juice secretion,gastric secretion; 24 hours before pilorus tieing,"4,9 ml/4 hours"
same,Total acidity gastric juice secretion,gastric secretion; 36 hours before pilorus tieing,"0,13 mEq/4 hours"
same,Volume gastric juice secretion,gastric secretion; 36 hours before pilorus tieing,"4,4 ml/4 hours"
same,change in vivo at 20 mg/kg,gastric secretion; [1],-53%
same,change in vivo at 20 mg/kg,gastric secretion; [2],-30%
same,change in vivo at 20 mg/kg,gastric secretion; [3],-47%
same,change in vivo at 20 mg/kg,gastric secretion; [4],-25%
same,change in vivo at 20 mg/kg,gastric secretion; [5],-23%
same,change in vivo at 20 mg/kg,gastric secretion; [6],-13%
same,change in vivo at 20 mg/kg,gastric secretion; [7],-19%
same,change in vivo at 20 mg/kg,gastric secretion; [8],-21%
same,ED50,gastric secretion,1.6 mg/kg
same,ability to reduce the gastric acid secretion (in words),gastric secretion,interesting ability
same,LD50 at 360 h,in vivo,2300 mg/kg
same,LD50,in vivo,3300 mg/kg
"CN(C)Cc1ccc(CSCCNc2nc(-c3ccc4ccccc4c3)cs2)o1 [Example No. 6, 2-(2-(((5-(dimethylamino)methyl-2-furanyl)methyl)thio)ethyl)-amino-4-(2-naphthyl)-thiazole]",inhibition at 10 µM,histamine H2 receptors; histamine 1·10^-5 M/L,90%
same,inhibition at 10 µM,histamine H2 receptors; histamine 1·10^-6 M/L,100%
same,inhibition at 10 µM,"histamine H2 receptors; histamine 2,5·10^-7 M/L",100%
same,inhibition at 10 µM,histamine H2 receptors; histamine 5·10^-6 M/L,90%
same,inhibition at 10 µM,histamine H2 receptors; histamine 5·10^-7 M/L,100%
same,inhibition at 1 µM,histamine H2 receptors; histamine 1·10^-5 M/L,40%
same,inhibition at 1 µM,histamine H2 receptors; histamine 1·10^-6 M/L,90%
same,inhibition at 1 µM,"histamine H2 receptors; histamine 2,5·10^-7 M/L",100%
same,inhibition at 1 µM,histamine H2 receptors; histamine 5·10^-6 M/L,70%
same,inhibition at 1 µM,histamine H2 receptors; histamine 5·10^-7 M/L,100%
same,inhibition at 0.1 µM,histamine H2 receptors; histamine 1·10^-5 M/L,35%
same,inhibition at 0.1 µM,histamine H2 receptors; histamine 1·10^-6 M/L,70%
same,inhibition at 0.1 µM,"histamine H2 receptors; histamine 2,5·10^-7 M/L",95%
same,inhibition at 0.1 µM,histamine H2 receptors; histamine 5·10^-6 M/L,50%
same,inhibition at 0.1 µM,histamine H2 receptors; histamine 5·10^-7 M/L,95%
same,inhibition at 0.01 µM,histamine H2 receptors; histamine 1·10^-5 M/L,15%
same,inhibition at 0.01 µM,histamine H2 receptors; histamine 1·10^-6 M/L,70%
same,inhibition at 0.01 µM,"histamine H2 receptors; histamine 2,5·10^-7 M/L",95%
same,inhibition at 0.01 µM,histamine H2 receptors; histamine 5·10^-6 M/L,50%
same,inhibition at 0.01 µM,histamine H2 receptors; histamine 5·10^-7 M/L,85%
same,antagonistic action to the histamine H2 receptors (in words),histamine H2 receptors,interesting ability
same,Total acidity gastric juice secretion,gastric secretion; 6 hours before pilorus tieing,"0,05 mEq/4 hours"
same,Volume gastric juice secretion,gastric secretion; 6 hours before pilorus tieing,"3,0 ml/4 hours"
same,Total acidity gastric juice secretion,gastric secretion; 12 hours before pilorus tieing,"0,04 mEq/4 hours"
same,Volume gastric juice secretion,gastric secretion; 12 hours before pilorus tieing,"2,9 ml/4 hours"
same,Total acidity gastric juice secretion,gastric secretion; 24 hours before pilorus tieing,"0,12 mEq/4 hours"
same,Volume gastric juice secretion,gastric secretion; 24 hours before pilorus tieing,"4,5 ml/4 hours"
same,Total acidity gastric juice secretion,gastric secretion; 36 hours before pilorus tieing,"0,12 mEq/4 hours"
same,Volume gastric juice secretion,gastric secretion; 36 hours before pilorus tieing,"5,0 ml/4 hours"
same,change in vivo at 20 mg/kg,gastric secretion; [1],-70%
same,change in vivo at 20 mg/kg,gastric secretion; [2],-43%
same,change in vivo at 20 mg/kg,gastric secretion; [3],-73%
same,change in vivo at 20 mg/kg,gastric secretion; [4],-37%
same,change in vivo at 20 mg/kg,gastric secretion; [5],-29%
same,change in vivo at 20 mg/kg,gastric secretion; [6],-20%
same,change in vivo at 20 mg/kg,gastric secretion; [7],-25%
same,change in vivo at 20 mg/kg,gastric secretion; [8],-11%
same,ED50,gastric secretion,1.8 mg/kg
same,ability to reduce the gastric acid secretion (in words),gastric secretion,interesting ability
same,LD50 at 360 h,in vivo,2100 mg/kg
same,LD50,in vivo,2800 mg/kg

# — US4652575A, “2-(ethylene-thio methyl furanyl)amino thiazole derivatives having acid secretion inhibiting activity” (Medosan Industrie Biochimiche Riunite S.p.A., priority 1984, dated 1987)
